According to patent US20080306098A1, “Pharmacokinetics of protease inhibitors and other drugs” (priority 2006, published 2008):
Where two headings read alike, the source gives them in different places.

Assays:
[1] = in vivo; cited from earlier work
[2] = non-transplant patients; cited from earlier work
CYP3a4 = molecular target: T1, CYP3a4 (Homo sapiens, UniProt P08684); assay: Fluorescence-based CYP3a4 assay (Invitrogen VIVID probes), with or without recombinant human FKBP; type: in vitro ADME
T1 construct: purchased Invitrogen (Carlsbad, Calif.)
Excerpt: An amyloid ligand, curcumin, is known to be a good substrate for CYP3a4 (a common P450 enzyme). We investigated whether conjugates between curcumin and FK506 would also be substrates for the enzyme. To test this possibility, we utilized a well-known fluorescence-based CYP3a4 assay. This assay, marketed by Invitrogen (Carlsbad, Calif.), under the name VIVID probes, relies on cytochrome-mediated production of a fluorescent marker from a model substrate. When a compound, such as curcumin, binds to the P450, it displaces the substrate and reduces the rate of production of the fluorescent product. […] However, when we supplied a source of human FKBP (in this case, recombinant bacterially-expressed protein), we observed very different results as shown in FIG. 3. […] It is believed that FKBP protects the curcumin conjugates from degradation by sterically hindering CYP3a4 binding. In the presence of cellular FKBP sources, this effect would be predicted to be increased because the compartmentalization of the conjugate further reduces availability to P450 enzymes.

[3] = unmodified drug; cited from earlier work

T1 sequence (P08684 whole entry): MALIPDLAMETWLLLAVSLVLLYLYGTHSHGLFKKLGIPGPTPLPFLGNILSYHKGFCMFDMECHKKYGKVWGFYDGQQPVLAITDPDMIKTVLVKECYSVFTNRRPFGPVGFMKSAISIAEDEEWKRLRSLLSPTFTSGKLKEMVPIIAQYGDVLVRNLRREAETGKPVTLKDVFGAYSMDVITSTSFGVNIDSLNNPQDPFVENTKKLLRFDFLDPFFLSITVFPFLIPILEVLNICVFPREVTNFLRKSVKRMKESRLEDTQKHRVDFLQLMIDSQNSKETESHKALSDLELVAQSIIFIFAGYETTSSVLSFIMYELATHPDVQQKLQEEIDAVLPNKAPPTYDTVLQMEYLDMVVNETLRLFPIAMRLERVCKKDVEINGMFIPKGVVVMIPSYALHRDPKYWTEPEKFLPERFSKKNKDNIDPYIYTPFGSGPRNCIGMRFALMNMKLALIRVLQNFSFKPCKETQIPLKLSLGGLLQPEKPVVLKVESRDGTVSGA

Compound: C=CC[C@@H]1/C=C(\C)C[C@H](C)C[C@H](OC)[C@H]2O[C@@](O)(C(=O)C(=O)N3CCCC[C@H]3C(=O)O[C@H](/C(C)=C/[C@@H]3CC[C@@H](O)[C@H](OC)C3)[C@H](C)[C@@H](O)CC1=O)[C@H](C)C[C@@H]2OC [FK506, FK506 (tacrolimus)]
- distribution into protected cellular compartments (in the blood) [1]: 72-98%
- half-life [2]: 21 h

Compound: COc1cc(/C=C/C(=O)CC(=O)/C=C/c2ccc(O)c(OC)c2)ccc1O [curcumin]
- protection from degradation by CYP3a4 (CYP3a4; in the presence of recombinant human FKBP): unable to protect
- substrate for CYP3a4 (CYP3a4; without FKBP): good substrates

Compound: CN(Cc1cnc2nc(N)nc(N)c2n1)c1ccc(C(=O)N[C@@H](CCC(=O)O)C(=O)O)cc1 [methotrexate]
- half-life [3]: 6 h
